# Laboratory results from paper PMC9090415, “Discovery of small molecule inhibitors of Plasmodium falciparum apicoplast DNA polymerase” (Journal of Enzyme Inhibition and Medicinal Chemistry, 2022).
# Molecular target: P. falciparum apicoplast DNA polymerase (Pf-apPOL) (Plasmodium falciparum, UniProt Q8ILY1)
# Test: Fluorescence-based high-throughput DNA polymerase assay (molecular beacon), primary screen and dose-response
# Assay type: biochemical
# Experimental: The HT assay employs a molecular beacon, a stem-loop DNA template with a Cy3 dye and the Black Hole Quencher on the 3′ and 5′ ends of the DNA, respectively. Pf-apPOL concentration is based on a calculated absorptivity of ε280 = 56750 M^−1 cm^−1. Reactions were carried out at 25 °C, using Corning 3575 […] (well-volume, 20 µL). Assays testing for compound inhibition composed of reaction buffer (pH 7.9 in 50 mM potassium acetate, 20 mM Tris-acetate and 10 mM magnesium acetate), Pf-apPOL (20 nM), DNA substrate (20 nM), dNTPs (6 µM), and compound (10 µM in DMSO). The DNA and nucleotide substrates (dNTPs) were at concentrations of 20 nM and 6 µM, respectively, in the assay. Pf-apPOL was incubated in the reaction buffer with dNTPs and the compound of interest (10 µM, in the assay) at 25 °C for 10 min. The DNA substrate was then added and the reaction was allowed to proceed for 90 min at 25 °C.
# Each assay plate contained 16 negative controls (no Pf-apPOL, DMSO present) and 16 positive controls (Pf-apPOL present, no DMSO). The fluorescence of each well was determined using a BioTek Synergy Neo fluorescence plate reader using excitation and emission wavelengths of 555 and 570 nm, respectively.
# In the above, Min is the average of fluorescence emission of the negative controls (substrate only), Max the average fluorescence emission from the positive controls (enzyme + substrate), and Test the emission from the assays in the presence of compounds (enzyme + compound + substrates). […] […] The IC50 of each compound was determined using Equation (2): (2) IC50= Vmax/(1+ (I/IC50)^n)
# In the above, n measures cooperativity, with n > 1 indicating synergistic binding of more than a single molecule of the compound.
# To identify apPOL inhibitors we utilised our previously developed high-throughput DNA polymerase assay. The HT assay is based on a molecular beacon DNA template that forms a stem-loop with a Cy3 dye and the Black Hole Quencher on the 3′ and 5′ ends of the DNA, respectively. DNA polymerase activity extends an annealed primer through the stem region, displacing the fluorophore from the quencher, thereby increasing its fluorescence (Figure 1(A)). The assay accurately recapitulates the kinetic behaviour of apPOL, as measured through more conventional low-throughput gel-based assays. The Z′ factor for the assay described here was 0.9 across all plates (data not shown).
# Figure 1. High-throughput screening. (A) The fluorescent-based DNA polymerase assay used to screen the compound libraries. The DNA template strand is a hairpin loop with a primer annealed to the loop. The 3’ end of the primer is 11 bases away from the 6 bp duplex. Strand displacement activity of the DNA polymerase separates the Cy3 dye from the Black hole quencher leading to an increase in fluorescent signal. (B) The high-throughput assay workflow. The DNA polymerase is incubated with […] compound for 10 min prior to addition of the hairpin substrate. The reaction is quenched at 3 different time points and the fluorescent signal is measured and % inhibition is determined using the provided equation.
# [1] = DRC-1; concentration 80 (unit not given); 10'
# [2] = primary screen value of the 186 hits; unit not given; 90 min, 10 µM
# [3] = primary screen value; head prints only 'DNA Pol'; 90 min, 10 µM
# P. falciparum apicoplast DNA polymerase (Pf-apPOL), sequence (Q8ILY1 entry or part of it): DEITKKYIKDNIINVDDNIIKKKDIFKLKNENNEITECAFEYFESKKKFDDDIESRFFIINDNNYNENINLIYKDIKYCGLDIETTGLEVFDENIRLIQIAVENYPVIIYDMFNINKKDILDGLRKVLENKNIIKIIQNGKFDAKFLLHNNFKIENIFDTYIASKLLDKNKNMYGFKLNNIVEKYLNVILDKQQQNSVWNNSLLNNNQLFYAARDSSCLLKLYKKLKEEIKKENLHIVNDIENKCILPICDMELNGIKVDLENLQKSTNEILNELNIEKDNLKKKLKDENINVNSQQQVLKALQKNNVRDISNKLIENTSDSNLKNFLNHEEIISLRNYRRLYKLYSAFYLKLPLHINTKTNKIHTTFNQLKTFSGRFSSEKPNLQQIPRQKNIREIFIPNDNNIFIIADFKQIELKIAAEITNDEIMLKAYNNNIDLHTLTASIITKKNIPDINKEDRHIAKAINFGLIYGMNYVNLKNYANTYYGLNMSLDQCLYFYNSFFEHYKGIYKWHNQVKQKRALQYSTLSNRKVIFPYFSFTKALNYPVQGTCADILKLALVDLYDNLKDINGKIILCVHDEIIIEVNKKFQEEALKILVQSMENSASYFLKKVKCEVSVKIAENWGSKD
smiles,measurement,setting,value
Cc1ccc(C2=N/C(=C\c3ccc(I)o3)C(=O)O2)cc1[N+](=O)[O-] [KU0073890],% inhibition Apo pol 10',DRC-1; concentration 2.5; 10',15.7556%
same,% inhibition Apol 90',DRC-1; concentration 2.5; 90',9.731%
same,% inhibition apPOL 180',DRC-1; concentration 2.5; 180',6.694%
same,% inhibition Apo pol 10',DRC-1; concentration 5; 10',16.0721%
same,% inhibition Apol 90',DRC-1; concentration 5; 90',7.063%
same,% inhibition apPOL 180',DRC-1; concentration 5; 180',1.084%
same,% inhibition Apo pol 10',DRC-1; concentration 10; 10',45.023%
same,% inhibition Apol 90',DRC-1; concentration 10; 90',27.25%
same,% inhibition apPOL 180',DRC-1; concentration 10; 180',14.7198%
same,% inhibition Apo pol 10',DRC-1; concentration 20; 10',76.1272%
same,% inhibition Apol 90',DRC-1; concentration 20; 90',60.0756%
same,% inhibition apPOL 180',DRC-1; concentration 20; 180',43.2832%
same,% inhibition Apo pol 10',DRC-1; concentration 40; 10',86.9883%
same,% inhibition Apol 90',DRC-1; concentration 40; 90',86.9491%
same,% inhibition apPOL 180',DRC-1; concentration 40; 180',82.7565%
same,% inhibition Apo pol 10',[1],80.4424%
same,% inhibition Apol 90',DRC-1; concentration 80; 90',89.2693%
same,% inhibition apPOL 180',DRC-1; concentration 80; 180',91.2118%
same,% inhibition Apo pol 5',DRC-2; 5'; concentration 2.5,19%
same,% inhibition Apol 40',DRC-2; 40'; concentration 2.5,19%
same,% inhibition ApPOL 90',DRC-2; 90'; concentration 2.5,17%
same,% inhibition ApPOL 90',DRC-2; 90'; concentration 40,75%
same,% inhibition ApPOL 90',DRC-2; 90'; concentration 80,75%
same,% inhibition apPOL 180',DRC-2; 180'; concentration 5,17%
same,% inhibition Apo pol 5',DRC-2; concentration 2.5; 5',19%
same,% inhibition Apol 40',DRC-2; concentration 2.5; 40',19%
same,% inhibition ApPOL 90',DRC-2; concentration 2.5; 90',17%
same,% inhibition apPOL 180',DRC-2; concentration 2.5; 180',11%
same,% inhibition Apo pol 5',DRC-2; concentration 5; 5',35%
same,% inhibition Apol 40',DRC-2; concentration 5; 40',32%
same,% inhibition ApPOL 90',DRC-2; concentration 5; 90',29%
same,% inhibition apPOL 180',DRC-2; concentration 5; 180',17%
same,% inhibition Apo pol 5',DRC-2; concentration 10; 5',44%
same,% inhibition Apol 40',DRC-2; concentration 10; 40',42%
same,% inhibition ApPOL 90',DRC-2; concentration 10; 90',38%
same,% inhibition apPOL 180',DRC-2; concentration 10; 180',25%
same,% inhibition Apo pol 5',DRC-2; concentration 20; 5',55%
same,% inhibition Apol 40',DRC-2; concentration 20; 40',62%
same,% inhibition ApPOL 90',DRC-2; concentration 20; 90',60%
same,% inhibition apPOL 180',DRC-2; concentration 20; 180',51%
same,% inhibition Apo pol 5',DRC-2; concentration 40; 5',58%
same,% inhibition Apol 40',DRC-2; concentration 40; 40',73%
same,% inhibition ApPOL 90',DRC-2; concentration 40; 90',75%
same,% inhibition apPOL 180',DRC-2; concentration 40; 180',77%
same,% inhibition Apo pol 5',DRC-2; concentration 80; 5',49%
same,% inhibition Apol 40',DRC-2; concentration 80; 40',70%
same,% inhibition ApPOL 90',DRC-2; concentration 80; 90',75%
same,% inhibition apPOL 180',DRC-2; concentration 80; 180',80%
same,DNA Pol,[2],42
same,DNA Pol,[3],42
O=C(O)c1cc([N+](=O)[O-])c(N2CCN(c3cccc(C(F)(F)F)c3)CC2)c([N+](=O)[O-])c1 [KU0076747],% inhibition Apo pol 10',DRC-1; concentration 2.5; 10',9.057%
same,% inhibition Apol 90',DRC-1; concentration 2.5; 90',2.381%
same,% inhibition apPOL 180',DRC-1; concentration 2.5; 180',-1.314%
same,% inhibition Apo pol 10',DRC-1; concentration 5; 10',24.3374%
same,% inhibition Apol 90',DRC-1; concentration 5; 90',17.3572%
same,% inhibition apPOL 180',DRC-1; concentration 5; 180',9.492%
same,% inhibition Apo pol 10',DRC-1; concentration 10; 10',20.6042%
same,% inhibition Apol 90',DRC-1; concentration 10; 90',12.0526%
same,% inhibition apPOL 180',DRC-1; concentration 10; 180',7.5333%
same,% inhibition Apo pol 10',DRC-1; concentration 20; 10',54.2328%
same,% inhibition Apol 90',DRC-1; concentration 20; 90',47.5478%
same,% inhibition apPOL 180',DRC-1; concentration 20; 180',35.8091%
same,% inhibition Apo pol 10',DRC-1; concentration 40; 10',87.2694%
same,% inhibition Apol 90',DRC-1; concentration 40; 90',81.5158%
same,% inhibition apPOL 180',DRC-1; concentration 40; 180',74.4081%
same,% inhibition Apo pol 10',[1],98.3006%
same,% inhibition Apol 90',DRC-1; concentration 80; 90',92.5623%
same,% inhibition apPOL 180',DRC-1; concentration 80; 180',89.3704%
same,% inhibition Apo pol 5',DRC-2; 5'; concentration 10,10%
same,% inhibition Apol 40',DRC-2; 40'; concentration 2.5,10%
same,% inhibition Apol 40',DRC-2; 40'; concentration 40,63%
same,% inhibition Apol 40',DRC-2; 40'; concentration 80,75%
same,% inhibition ApPOL 90',DRC-2; 90'; concentration 2.5,10%
same,% inhibition ApPOL 90',DRC-2; 90'; concentration 40,63%
same,% inhibition apPOL 180',DRC-2; 180'; concentration 80,75%
same,% inhibition Apo pol 5',DRC-2; concentration 2.5; 5',9%
same,% inhibition Apol 40',DRC-2; concentration 2.5; 40',10%
same,% inhibition ApPOL 90',DRC-2; concentration 2.5; 90',10%
same,% inhibition apPOL 180',DRC-2; concentration 2.5; 180',5%
same,% inhibition Apo pol 5',DRC-2; concentration 5; 5',16%
same,% inhibition Apol 40',DRC-2; concentration 5; 40',17%
same,% inhibition ApPOL 90',DRC-2; concentration 5; 90',15%
same,% inhibition apPOL 180',DRC-2; concentration 5; 180',8.45%
same,% inhibition Apo pol 5',DRC-2; concentration 10; 5',10%
same,% inhibition Apol 40',DRC-2; concentration 10; 40',8.56%
same,% inhibition ApPOL 90',DRC-2; concentration 10; 90',8%
same,% inhibition apPOL 180',DRC-2; concentration 10; 180',2.65%
same,% inhibition Apo pol 5',DRC-2; concentration 20; 5',20%
same,% inhibition Apol 40',DRC-2; concentration 20; 40',22%
same,% inhibition ApPOL 90',DRC-2; concentration 20; 90',21%
same,% inhibition apPOL 180',DRC-2; concentration 20; 180',12%
same,% inhibition Apo pol 5',DRC-2; concentration 40; 5',54%
same,% inhibition Apol 40',DRC-2; concentration 40; 40',63%
same,% inhibition ApPOL 90',DRC-2; concentration 40; 90',63%
same,% inhibition apPOL 180',DRC-2; concentration 40; 180',56%
same,% inhibition Apo pol 5',DRC-2; concentration 80; 5',64%
same,% inhibition Apol 40',DRC-2; concentration 80; 40',75%
same,% inhibition ApPOL 90',DRC-2; concentration 80; 90',77%
same,% inhibition apPOL 180',DRC-2; concentration 80; 180',75%
same,DNA Pol,[2],52
same,DNA Pol,[3],52
